From US20040248963A1, “Prodrugs of excitatory amino acids” (priority 2001, published 2004)

For `Cl.N[C@@]1(C(=O)OCOC(=O)c2ccc3ccccc3c2)CC[C@H]2[C@H](C(=O)O)[C@H]21`, the melting point was 184 to 185 °C.
For `CC(C)(C)C(=O)OCOC(=O)[C@H]1[C@@H]2CC[C@@](N)(C(=O)O)[C@@H]21.Cl`, the melting point was 258 °C (dec.).
In the case of `Cl.N[C@@]1(C(=O)O)CC[C@H]2[C@H](C(=O)OCOC(=O)c3ccccc3)[C@H]21`, the melting point is reported as 230 °C (dec.).
Work on `CC(C)OC(=O)OCOC(=O)[C@H]1[C@@H]2CC[C@@](N)(C(=O)OCOC(=O)OC(C)C)[C@@H]21.Cl` yielded a melting point of 52 °C.
Work on `CC(C)C(=O)OCOC(=O)[C@H]1[C@@H]2CC[C@@](N)(C(=O)OCOC(=O)C(C)C)[C@@H]21.Cl` yielded a melting point of 224 to 226 °C.
In the case of `Cl.N[C@@]1(C(=O)OCOC(=O)c2ccc3ccccc3c2)CC[C@H]2[C@H](C(=O)OCOC(=O)c3ccc4ccccc4c3)[C@H]21`, the melting point is reported as 125 to 127 °C.
Molecule `Cl.N[C@@]1(C(=O)OCOC(=O)c2cccc3ccccc23)CC[C@H]2[C@H](C(=O)OCOC(=O)c3cccc4ccccc34)[C@H]21` has a melting point of 92 to 94 °C.
`CC(C)OC(=O)OCOC(=O)[C@]1(N)CC[C@H]2[C@H](C(=O)O)[C@H]21.Cl` [Example 14, (1S,2S,5R,6S)-2-Amino-bicyclo[3.1.0]hexane-2,6-dicarboxylic acid 2-isopropyloxycarbonyloxymethyl ester hydrochloride] showed a melting point of 59 to 60 °C.
In the case of `Cl.N[C@@]1(C(=O)OCOC(=O)c2cccc3ccccc23)CC[C@H]2[C@H](C(=O)O)[C@H]21` [Example 17, (1S,2S,5R,6S)-2-amino-bicyclo[3.1.0]hexane-2,6-dicarboxylic acid 2-(naphthalene-1′-carbonyloxymethyl) ester hydrochloride], the melting point is reported as 212 to 213 °C.
For `CC(C)(C)C(=O)OCOC(=O)[C@H]1[C@@H]2CC[C@@](N)(C(=O)O)[C@@H]21` [Example 21, (1S,2S,5R,6S)-2-Amino-bicyclo[3.1.0]hexane-2,6-dicarboxylic acid 6-tert-butylcarbonyloxymethyl ester], the melting point was 205 to 206 °C.
With `CC(C)OC(=O)OCOC(=O)[C@H]1[C@@H]2CC[C@@](N)(C(=O)O)[C@@H]21` [Example 23, (1S,2S,5R,6S)-2-Amino-bicyclo[3.1.0]hexane-2,6-dicarboxylic acid 6-isopropyloxycarbonyloxymethyl ester] the melting point was 196 to 197 °C.
`CCCC(=O)OCOC(=O)[C@H]1[C@@H]2CC[C@@](N)(C(=O)O)[C@@H]21` [Example 24, (1S,2S,5R,6S)-2-amino-bicyclo[3.1.0]hexane-2,6-dicarboxylic acid 6-n-butyryloxymethyl ester] gave a melting point of 199 to 200 °C.
With `COC(=O)OCOC(=O)[C@H]1[C@@H]2CC[C@@](N)(C(=O)O)[C@@H]21` [Example 25, (1S,2S,5R,6S)-2-amino-bicyclo[3.1.0]hexane-2,6-dicarboxylic acid 6-methoxycarbonyloxymethyl ester] the melting point was 214 to 215 °C.
With `Cc1oc(=O)oc1COC(=O)[C@H]1[C@@H]2CC[C@@](N)(C(=O)O)[C@@H]21` [Example 26, (1S,2S,5R,6S)-2-amino-bicyclo[3.1.0]hexane-2,6-dicarboxylic acid 6-(5′-methyl-2′-oxo-[1′,3′]dioxolen-4′-yl)methyl ester] the melting point was 180 °C (dec.).
`Cl.N[C@@]1(C(=O)OCOC(=O)c2ccccc2)CC[C@H]2[C@H](C(=O)OCOC(=O)c3ccccc3)[C@H]21` [Example 43, (1S,2S,5R,6S)-2-Amino-bicyclo[3.1.0]hexane-2,6-dicarboxylic acid, 2,6-dibenzoyloxymethyl ester hydrochloride] showed a melting point of 73 °C.
